We go through two compounds from article PMC6838069, “Biochemical characterization and chemical validation of Leishmania MAP Kinase-3 as a potential drug target” (Scientific Reports, 2019).

In this assay the target is T1, LdMAPK3 (Leishmania donovani, UniProt A0A3S7WR45).
T1 construct: gene LdCL_100012100; pET-28a BamHI/HindIII, His6-tagged (~48 kDa on gel, tag not reported cut), E. coli BL21(DE3), Ni-NTA
T1 sequence (A0A3S7WR45 1-388): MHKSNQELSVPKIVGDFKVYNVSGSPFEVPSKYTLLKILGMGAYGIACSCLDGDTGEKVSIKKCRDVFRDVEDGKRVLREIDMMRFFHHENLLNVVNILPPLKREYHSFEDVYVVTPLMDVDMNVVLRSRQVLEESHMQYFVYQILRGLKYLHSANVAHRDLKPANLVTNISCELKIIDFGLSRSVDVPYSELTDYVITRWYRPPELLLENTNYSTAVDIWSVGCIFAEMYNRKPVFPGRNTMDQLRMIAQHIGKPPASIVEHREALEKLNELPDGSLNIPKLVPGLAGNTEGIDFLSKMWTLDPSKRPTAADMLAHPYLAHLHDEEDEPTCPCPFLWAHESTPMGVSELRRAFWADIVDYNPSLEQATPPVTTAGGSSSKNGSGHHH
The assay can be described thus: Kinase-Glo Plus luminescent ATP depletion; Dixon plot. Format: biochemical.

The Ki is a dissociation constant, usually derived from enzyme kinetics or from competition with a known ligand. For `O=c1cc(-c2ccccc2)oc2cc(O)cc(O)c12` [CHY, 5,7-dihydroxyflavone], the Ki was found to be 8.75 ± 0.11 µM.

Regarding `O=c1c(-c2ccc(O)cc2)coc2cc(O)cc(O)c12` [GEN, genistein], the Ki came to 3.76 ± 0.28 µM.
